≈ marks a conversion by molar mass, not a printed value. Where “and” joins values, the source holds several entries; their conditions need not be identical. Identical values can stand only once. Counter-ions that a name gives are not always drawn. Like-named read-outs stand apart in the source and are kept apart here.
How the values were obtained:
[1] = cited from earlier work
[2] = pKa of counterions and active agents; format: physicochemical; details: active vs its counterion; read-out: difference between the pKa of the active and the counterion
[3] = pH 6.5; cited from earlier work
[4] = counterion, first value of the cell, some values marked estimated

| Compound | pKa [1, 4] | other results |
| --- | --- | --- |
| O=C(CC(C(=O)OC1CCCCC1)S(=O)(=O)O)OC1CCCCC1 (stereo not drawn) [1,4-dicyclohexyloxy-1,4-dioxobutane-2-sulfonate] | <1 estimated |  |
| CC(C)CCOC(=O)CC(C(=O)OCCC(C)C)S(=O)(=O)O (stereo not drawn) [1,4-diisopentyloxy-1,4-dioxobutane-2-sulfonate] | <1 estimated |  |
| CC(C)(C)c1ccc2c(S(=O)(=O)O)c(C(C)(C)C)ccc2c1S(=O)(=O)O [2,6-di-tert-butylnaphthalene-1,5-disulfonate] | −2.32 | pKa ([1]; counterion, second value printed in the same cell): −3.05 |
| CC(C)(C)c1ccc2c(S(=O)(=O)O)c(C(C)(C)C)ccc2c1 [2,6-di-tert-butylnaphthalene-1-sulfonate] | −2.48 |  |
| O=S(=O)(O)c1ccc2ccccc2c1 [2-Naphthalenesulfonate, 2-naphthalene sulfonate] | 0.17 |  |
| COc1ccc(-c2ccc3cc(C(=O)O)ccc3c2)cc1C12CC3CC(CC(C3)C1)C2 [Adapalene, reference compound] |  | pKa [2]: 5.2; pKa ([1]; active agent): 4.2 |
| CC(C)CCC[C@@H](C)[C@H]1CC[C@H]2[C@@H]3CC=C4C[C@@H](OP(=O)(O)O)CC[C@]4(C)[C@H]3CC[C@]12C [Cholesteryl phosphate, cholesteryl phosphate] | <2 estimated |  |
| CC(C)CCC[C@@H](C)[C@H]1CC[C@H]2[C@@H]3CC=C4CC(OS(=O)(=O)O)CC[C@]4(C)[C@H]3CC[C@]12C (stereo partly drawn) [Cholesteryl sulfate, cholesteryl sulfate] | <1 estimated |  |
| C#Cc1cccc(Nc2ncnc3cc(OCCOC)c(OCCOC)cc23)c1 [Erlotinib, N-(3-ethynylphenyl)-6,7-bis(2-methoxyethoxy) quinazolin-4-amine, reference compound] |  | pKa [2]: ≥ 4.4; solubility in phosphate buffered saline [3]: 1 µg/mL (≈ 2.54 µM); pKa ([1]; active agent): 5.42 and 5.4 |
| c1ccc(CNCCNCc2ccccc2)cc1 [N,N′-dibenzylethylene diamine] | 6.2 |  |
| c1ccc(CCNCc2ccccc2)cc1 [N-(benzyl)-2-phenylethan-1-amine] | 9.4 |  |
| CC(C)c1ccc2c(c1)CC[C@H]1[C@](C)(CNCCNC[C@]3(C)CCC[C@]4(C)c5ccc(C(C)C)cc5CC[C@@H]34)CCC[C@]21C [N^1,N^2-bis(((1 R,4aS,10aR)-7-isopropyl-1,4a-dimethyl-1,2,3,4,4a,9,10,10a-octahydrophenanthren-1-yl)methyl)ethane-1,2-diamine] | 6.6 |  |
| Cc1c(C)c2c(c(C)c1OP(=O)(O)O)CCC(C)(CCCC(C)CCCC(C)CCCC(C)C)O2 (stereo not drawn) [Tocopherol phosphate, tocopherol phosphate] | <2 estimated |  |
| Cc1c(C)c2c(c(C)c1OS(=O)(=O)O)CCC(C)(CCCC(C)CCCC(C)CCCC(C)C)O2 (stereo not drawn) [Tocopherol sulfate, tocopherol sulfate] | <1 estimated |  |

Reference: US20170209375A1, “NANOPARTICLE FORMULATIONS OF LOW-WATER SOLUBILITY ACTIVES” (Bend Research, Inc., priority 2014, published 2017)
